# Columns and labels:
# Experiment in all cases: AUC of viability dose-response curve (% viability x log10 dose units); higher = less sensitive
# Conditions in all cases: 48 h
# [1] = tested on: P12-Ichikawa
# How it was run: (§1)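 Area under the curve was integrated by trapezoidal rule from a log-logistic fit of normalised viability, with curves exceeding full viability scaled and quality-control failures removed. The fit had four parameters over log10 doses. Viability came from CellTiter-Glo One luminescence, normalised per plate to DMSO and cell-free wells, after leukemia cells adapted to each medium (500 or 1000 cells/well, 1536-well plates) were exposed to library compounds in DMSO for 48 h at 37°C. The 11 threefold doses ran from 47 μM to 0.79 nM.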
# [2] = tested on: NOMO1
# How it was run: as §1
# [3] = tested on: SEM cells
# How it was run: as §1
# [4] = RPMI 5 mM glucose + 10% dialyzed FBS
SMILES,AUC of viability dose-response curve ([1]; HPLM + 10% dialyzed FBS),AUC of viability dose-response curve ([1]; RPMI 5 mM glucose + 10% FBS),"AUC of viability dose-response curve [1, 4]",AUC of viability dose-response curve ([2]; HPLM + 10% dialyzed FBS),AUC of viability dose-response curve ([2]; RPMI 5 mM glucose + 10% FBS),"AUC of viability dose-response curve [2, 4]",AUC of viability dose-response curve ([3]; HPLM + 10% dialyzed FBS),AUC of viability dose-response curve ([3]; RPMI 5 mM glucose + 10% FBS),"AUC of viability dose-response curve [3, 4]"
Cc1cnc(-c2cc(N3CCN(C(=O)CC[S+](C)(=O)[O-])CC3)ncc2Cl)c(C)c1,466,475,469,404,470,455,426,453,427
C\C1=C(\C=C(C#N)/C(=O)N1)C2=C[N]3C=CN=C3C=C2,419,394,375,407,393,405,383,424,411
Cn1cnc2c1c(=O)[nH]c(=O)n2C,452,452,445,440,443,449,447,415,443
CCC(C)(Oc1ccc(C2(c3ccc(OC(C)(CC)C(=O)O)cc3)CCCCC2)cc1)C(=O)O (stereo not given),458,459,426,475,456,469,471,454,472
N=C(NCCCCCCNC(=N)NC(=N)Nc1ccc(Cl)cc1)NC(=N)Nc1ccc(Cl)cc1,452,416,419,454,409,440,453,468,420
